From patent US12466818B2, “Thienyl-aniline compounds for treatment of dermal disorders” (NFlection Therapeutics, Inc., priority 2018, dated 2025)

What was measured:
[1] = test system: pERK in human cutaneous neurofibroma explants; assay: Human cutaneous neurofibroma explant pERK suppression (Western blot); assay type: cell-based
Experimental: Explant Protocol: Human cutaneous neurofibroma explant samples were collected in DMEM/F-12 (Thermo Fisher, Cat #11320033) supplemented with 1×B27 supplement (Thermo Fisher, Cat #17504044), 2.5 μg/ml of Amphotericin B (Thermo Fisher, Cat #15290018), and 50 units/ml of Penicillin-50 μg/ml of Streptomycin (Thermo Fisher, Cat #15070063) and incubated in the same medium for subsequent treatment. The specimen was cut into small cubes containing both the epidermis and dermis. The tissues were partially submerged in the medium in 384-well plate with the epidermis exposed to the air.
The tissues were fully submerged in the medium in 48-well plate and 5 μl of compounds dissolved in DMSO were added to 200 μl of the medium in each well. After 4 h incubation at 37° C. and 5% CO2, the tissues were harvested and half of the specimen was flash frozen in liquid nitrogen for Western Blot analysis. The other half of the specimen was fixed for 24 hours in 10% formalin and then transferred to 70% ethanol for […].
Skin samples were thawed on ice and weighed. 10 volume (10 μl for each mg of tissue) of lysis buffer (RIPA buffer+0.5 mM EDTA+1×Halt protease and phosphatase inhibitor cocktail) was then added to each sample. […]
Western Blot analysis: The lysate was thawed on ice and protein concentration was determined by the BCA protein assay kit using bovine serum albumin (BSA) as standards. […]

MEK1 = MEK1 (Homo sapiens (Human), UniProt Q02750); assay: MEK Inhibition Assay-2 (Z'-LYTE biochemical assay); conditions: Z'-LYTE assay of Example 37; read-out: IC50 against MEK1
Experimental: MEK1 inhibitory activity of compounds were tested using the following procedure (protocol available at thermofisher.com/content/dam/LifeTech/migration/files/drug-discovery/pdfs.par.60256.file.dat/20130430%20ssbk %20customer %20protocol %20 and %20assa y %20conditions.pdf). The Z′-LYTE biochemical assay (ThermoFisher) employs a fluorescence-based, coupled-enzyme format and is based on the differential sensitivity of phosphorylated and non-phosphorylated peptides to proteolytic cleavage.
Test compounds in 100% DMSO were screened in 1% DMSO (final) in the well. For 10 point titrations, 3-fold serial dilutions are conducted from the starting concentration of 30 μM.
After the 1 hour incubation, 5 μL of a 1:1024 dilution of Development Reagent A (available from Invitrogen, catalog no. PV3295) was added.
ATP solutions were diluted to a 4× working concentration in Kinase Buffer (50 mM HEPES pH 7.5, 0.01% BRIJ-35, 10 mM MgCl2, 1 mM EGTA). ATP Km apparent was previously determined using a Z′-LYTE assay. The Development Reagent was diluted in Development Buffer (available from Invitrogen, catalog no. P3127).
Assay Protocol: 2.5 μL of 4× test compound or 100 nL of 100× Test Compound plus 2.4 μL Kinase Buffer, 5 μL of the 2× Peptide/Kinase Mixture, 2.5 μL of 4×ATP Solution were added to the plates and placed on a shake plate for 30-seconds. The kinase reaction was allowed to proceed for 60-minute at room temperature, before 5 μL of Development Reagent Solution was added, and the mixture agitated for 30-seconds on a shake plate. The mixture was incubated for 60-minute at room temperature. Fluorescence was measured using a plate reader and the data were analyzed.
This control yielded 100% cleaved peptide in the Development Reaction. The 100% Phosphorylation Control, which consisted of a synthetically phosphorylated peptide of the same sequence as the peptide substrate, was designed to allow for the calculation of percent phosphorylation. This control yielded a very low percentage of cleaved peptide in the Development Reaction. The 0% Phosphorylation and 100% Phosphorylation Controls allow for the calculation of the percent phosphorylation achieved in a specific reaction well.
The minimum emission ratio in a screen was established by the 0% Inhibition Control, which contained active kinase. This control was designed to produce a 10-50% phosphorylated peptide in the Kinase Reaction. Cascade assays may produce up to 70% phosphorylated peptide.
A known inhibitor control standard curve, 10 point titration, was run for each individual kinase on the same plate as the kinase to ensure the kinase was inhibited within an expected IC50 range previously determined.
The following controls are prepared for each concentration of Test Compound assayed. […] The expected value for a non-interfering compound should be 100%. Any value outside of 90% to 110% was flagged. […] The expected value for a non-fluorescence compound should be 0%. Any value>20% was flagged.
The data in Table A was calculated. XLfit from IDBS was used. The dose response curve was curve fit to model number 205 (sigmoidal dose-response model).
Table 3 lists the MEK1 inhibition assay results of selected compounds according to the above procedure.

Chain of MEK1 (Q02750 whole entry): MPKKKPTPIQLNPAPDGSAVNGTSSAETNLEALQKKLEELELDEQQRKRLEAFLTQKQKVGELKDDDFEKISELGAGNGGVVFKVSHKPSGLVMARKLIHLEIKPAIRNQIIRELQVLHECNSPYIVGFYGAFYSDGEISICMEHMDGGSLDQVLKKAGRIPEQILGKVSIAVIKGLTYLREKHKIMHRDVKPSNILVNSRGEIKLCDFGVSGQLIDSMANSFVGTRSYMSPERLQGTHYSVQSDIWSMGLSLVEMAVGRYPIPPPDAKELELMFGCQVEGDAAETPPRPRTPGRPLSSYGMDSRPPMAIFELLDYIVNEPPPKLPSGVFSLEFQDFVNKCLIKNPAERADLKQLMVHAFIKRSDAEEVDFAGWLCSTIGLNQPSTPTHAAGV

## O=C1CCCc2c1sc(Nc1ccc(I)cc1F)c2C(=O)NOCCO [Compound 1.029, 2-((2-Fluoro-4-iodophenyl)amino)-N-(2-hydroxyethoxy)-7-oxo-4,5,6,7-tetrahydrobenzo[b]thiophene-3-carboxamide]
[1]; concentration of 500 nM
  suppression of pERK in human cutaneous neurofibroma (cNF) explants (FIG. 5): suppression of pERK
[1]; treatment for 4 hours at 5 nM, 50 nM, and 500 nM
  suppression of pERK in human cutaneous neurofibroma (cNF) explants (FIG. 4): suppression of pERK
MEK1
  IC50: ≤ 0.15 µM
